Molecular target: Leucine-rich repeat serine/threonine-protein kinase 2 (Homo sapiens, UniProt Q5S007)
Test: LRRK2 Kinase Activity Assay
Description: LRRK2 Kinase reactions were carried out in 384-well white polystyrene plates in a final volume of 6 μl using ADP-Glo Kinase Assay kit (Promega Corp.). Compound and substrates (LRRKtide peptide and ATP) in assay buffer were first dispensed in wells. Kinase reaction was then started by the addition of human recombinant LRRK2 protein. After 1h-incubation at 37 C., the enzymatic reaction was stopped by the addition of 6 μl of ADP-Glo Reagent-1 and an additional 40-minutes incubation at 23 C. (residual ATP depletion). A final 30-minutes incubation after 12 μL reagent-2 addition (ADP to ATP conversion and luciferin/luciferase reaction) was performed before luminescent signal acquisition (EnVision multimode plate reader-PerkinElmer, Inc.). Data from 10 individual concentrations of tested compounds (N=2) were fitted (XLfit -ID Business Solutions Ltd) to deliver IC50s (compound concentration leading to 50% inhibition of reference enzymatic activity).

Leucine-rich repeat serine/threonine-protein kinase 2, sequence (Q5S007 whole entry): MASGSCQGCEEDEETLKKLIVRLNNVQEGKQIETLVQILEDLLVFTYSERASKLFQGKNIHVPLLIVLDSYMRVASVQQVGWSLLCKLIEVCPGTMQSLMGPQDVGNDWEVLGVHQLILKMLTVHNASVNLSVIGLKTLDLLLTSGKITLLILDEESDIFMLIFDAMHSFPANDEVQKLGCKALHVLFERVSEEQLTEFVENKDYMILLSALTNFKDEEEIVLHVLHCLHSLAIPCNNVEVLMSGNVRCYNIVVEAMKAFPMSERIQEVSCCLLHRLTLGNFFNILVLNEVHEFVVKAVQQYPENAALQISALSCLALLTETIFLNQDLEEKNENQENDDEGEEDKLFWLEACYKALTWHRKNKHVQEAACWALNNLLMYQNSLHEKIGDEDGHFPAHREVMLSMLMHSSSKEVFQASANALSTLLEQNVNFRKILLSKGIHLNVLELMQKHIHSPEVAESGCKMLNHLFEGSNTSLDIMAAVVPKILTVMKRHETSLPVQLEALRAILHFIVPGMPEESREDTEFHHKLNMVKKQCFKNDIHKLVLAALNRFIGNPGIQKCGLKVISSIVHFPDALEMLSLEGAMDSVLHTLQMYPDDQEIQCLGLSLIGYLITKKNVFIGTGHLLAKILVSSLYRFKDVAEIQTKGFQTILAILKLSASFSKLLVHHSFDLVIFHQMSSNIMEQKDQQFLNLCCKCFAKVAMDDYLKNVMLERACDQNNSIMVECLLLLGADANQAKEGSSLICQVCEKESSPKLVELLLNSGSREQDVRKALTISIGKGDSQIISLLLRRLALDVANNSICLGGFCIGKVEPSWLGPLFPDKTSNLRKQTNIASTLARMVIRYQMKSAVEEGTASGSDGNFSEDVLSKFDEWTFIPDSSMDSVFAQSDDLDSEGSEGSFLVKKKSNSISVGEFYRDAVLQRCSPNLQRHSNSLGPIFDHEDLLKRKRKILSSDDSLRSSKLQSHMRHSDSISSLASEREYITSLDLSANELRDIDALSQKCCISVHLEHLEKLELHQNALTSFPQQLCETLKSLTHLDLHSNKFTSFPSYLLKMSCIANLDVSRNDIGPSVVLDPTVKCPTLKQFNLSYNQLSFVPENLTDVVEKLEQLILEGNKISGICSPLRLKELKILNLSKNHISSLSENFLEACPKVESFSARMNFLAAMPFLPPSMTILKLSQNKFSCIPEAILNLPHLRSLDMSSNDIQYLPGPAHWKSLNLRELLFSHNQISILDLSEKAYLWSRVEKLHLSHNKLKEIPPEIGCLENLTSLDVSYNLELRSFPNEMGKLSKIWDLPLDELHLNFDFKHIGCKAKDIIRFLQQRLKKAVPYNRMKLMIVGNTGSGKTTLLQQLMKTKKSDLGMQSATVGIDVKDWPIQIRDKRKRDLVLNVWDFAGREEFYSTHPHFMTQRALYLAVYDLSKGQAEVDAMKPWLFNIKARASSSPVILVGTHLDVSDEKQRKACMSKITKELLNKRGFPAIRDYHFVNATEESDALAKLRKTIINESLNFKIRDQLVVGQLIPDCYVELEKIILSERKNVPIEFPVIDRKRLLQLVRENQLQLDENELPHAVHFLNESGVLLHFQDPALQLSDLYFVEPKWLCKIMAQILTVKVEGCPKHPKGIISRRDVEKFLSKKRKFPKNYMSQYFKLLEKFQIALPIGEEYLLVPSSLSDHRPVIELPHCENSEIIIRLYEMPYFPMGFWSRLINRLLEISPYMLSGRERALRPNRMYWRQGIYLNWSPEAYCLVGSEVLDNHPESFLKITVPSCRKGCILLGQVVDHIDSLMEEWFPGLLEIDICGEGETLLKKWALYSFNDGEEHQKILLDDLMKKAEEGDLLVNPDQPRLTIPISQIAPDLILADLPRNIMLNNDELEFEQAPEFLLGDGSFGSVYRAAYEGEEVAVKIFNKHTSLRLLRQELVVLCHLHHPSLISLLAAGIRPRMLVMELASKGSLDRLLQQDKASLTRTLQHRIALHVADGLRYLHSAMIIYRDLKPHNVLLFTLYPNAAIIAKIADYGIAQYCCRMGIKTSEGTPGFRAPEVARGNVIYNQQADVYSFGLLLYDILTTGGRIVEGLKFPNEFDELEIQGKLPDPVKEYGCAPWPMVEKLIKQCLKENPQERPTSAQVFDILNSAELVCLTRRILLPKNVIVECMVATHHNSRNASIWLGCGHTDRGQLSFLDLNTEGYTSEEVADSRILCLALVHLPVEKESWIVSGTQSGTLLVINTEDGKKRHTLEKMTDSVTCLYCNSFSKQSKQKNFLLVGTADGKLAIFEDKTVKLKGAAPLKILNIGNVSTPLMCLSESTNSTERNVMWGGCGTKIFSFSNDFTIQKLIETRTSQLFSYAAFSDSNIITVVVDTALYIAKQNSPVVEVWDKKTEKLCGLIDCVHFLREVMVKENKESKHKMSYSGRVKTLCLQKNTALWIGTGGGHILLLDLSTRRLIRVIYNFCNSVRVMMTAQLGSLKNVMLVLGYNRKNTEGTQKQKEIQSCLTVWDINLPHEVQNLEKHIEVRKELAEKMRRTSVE

O=C1NCCCOc2ccc3[nH]nc(c3c2)-c2cc(Br)cc(c2)CO1 [US20230357269, Example 9]
IC50: < 10 nM

O=C1NCCCOc2ccc3[nH]nc(c3c2)-c2ccc(Br)c(c2)CO1 [US20230357269, Example 30]
IC50: < 10 nM

Reference: BindingDB's records for patent US20230357269 (Les Laboratoires Servier, 2023)
